US20250268910A1 (priority 2022, published 2025)
pKi: −log10 of the molar value.

Experiments:
[1] = target: T1, human α7 nAChR subtype (Homo sapiens, UniProt P36544); experiment: biochemical; assay type: binding
T1 construct: expressed in transfected cells; host or cells: SH-SY5Y cells (membranes)

[2] = test system: citric acid-induced cough in guinea pigs; experiment: In vivo citric acid-induced cough in guinea pigs (whole body plethysmograph); conditions: for cough incubation period: p<0.05 vs saline control (232 seconds)
Experimental: As depicted in FIG. 1, cough induction is conducted by placing guinea pigs into a whole body plethysmograph (WBP) equipped with a Aeroneb™ vibrating mesh nebulizer, and including pressure transducers and detection equipment (EMKA technologies). A primary microphone is supplied (EMKA Technologies) for acoustic confirmation of cough frequency in the form of a digital trace using the EMKA software.
A secondary microphone (T1 True Wireless Earphone, QCY®) also is placed in the chamber and connected to a smartphone via Bluetooth to enable the observers to hear the audible sounds during the test. A bias flow rate of 2 L/min is used to continuously draw either atmospheric air (during the fresh air period) or aerosolized citric acid from the nebulizer into the WBP and expel it out through an exhaust pipe. Chamber pressure in the WBP is set to be between −10 to −30 Pa relative to ambient pressure.
Prior to the citric acid challenge, the guinea pigs are administered (intraperitoneal injection) with vehicle control, positive control or test compound (where applicable) with different dosage (Table 2) and placed individually into the WBP for at least 5 minutes in order to habituate.
The procedure was as follows: Injection→mice in box having citric acid for 10 mins (counting the cough)→box then fill with air for 5 mins (counting the cough)→mice move to recovery cage.
Appropriate concentration of citric acid is used to generate aerosol and deliver to WBP for 10 minutes with constant recording of pressure measurements. The mean concentration of citric acid was 1283.1±137.2 μg/L. Upon completion of citric acid challenge, the guinea pig is allowed to recover and continue recording of cough counts for another 5 minutes. Subsequently, the guinea pigs are closely monitored in recovery cage for full recovery from the challenge and that no adverse events were present before returning the animals to its home cage. Cough counts (CCnt) are recorded over a period of at least 10 mins, starting from citric acid stimulation and cough incubation period (CIP) are defined as the time it takes to cough for the first time after citric acid stimulation.
The cough response during citric acid challenge and post-treatment recovery is carefully monitored using: • continuous pressure monitoring (plethysmography monitoring software) • acoustic confirmation of cough using microphones (primary and secondary) • visual confirmation of cough through posture change.
The data were analysed using Oneway ANOVA (*p<0.05, **p<0.01, ***p<0.001, ****p<0.0001) when compared to saline control, and each column represents Mean±SEM.

T1 sequence (P36544 23-502): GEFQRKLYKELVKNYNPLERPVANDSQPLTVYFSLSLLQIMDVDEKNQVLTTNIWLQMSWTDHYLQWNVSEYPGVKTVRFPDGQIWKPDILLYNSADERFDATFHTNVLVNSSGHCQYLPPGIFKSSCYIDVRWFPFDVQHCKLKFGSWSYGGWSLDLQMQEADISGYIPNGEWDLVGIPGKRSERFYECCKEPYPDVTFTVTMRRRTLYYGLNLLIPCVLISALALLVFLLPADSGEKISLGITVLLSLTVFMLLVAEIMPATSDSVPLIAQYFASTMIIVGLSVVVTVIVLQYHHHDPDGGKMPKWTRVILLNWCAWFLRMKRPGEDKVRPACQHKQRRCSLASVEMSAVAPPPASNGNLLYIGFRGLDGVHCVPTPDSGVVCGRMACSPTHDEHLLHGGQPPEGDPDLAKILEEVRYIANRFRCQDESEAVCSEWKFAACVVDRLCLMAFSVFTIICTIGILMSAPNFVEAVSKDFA

SMILES | pKi [1] | citric acid-induced cough counts (number of coughs) ([2]; high concentration 15 mg/kg intraperitoneal, p<0.05 vs saline control (13 coughs)) | cough incubation period ([2]; high concentration 15 mg/kg intraperitoneal) [s] | citric acid-induced cough counts (number of coughs) ([2]; low concentration 1.5 mg/kg intraperitoneal, p<0.0001 vs saline control (13 coughs)) | cough incubation period ([2]; low concentration 1.5 mg/kg intraperitoneal) [s] | citric acid-induced cough counts (number of coughs) ([2]; medium concentration 5 mg/kg intraperitoneal, p<0.05 vs saline control (13 coughs))
C1=C(c2ccc(-c3ccccc3)nc2)C2CCN(C1)CC2 [4-(6-Phenyl-3-pyridyl)-1-azabicyclo[3.2.2]non-3-ene] | 6.89 | 7 | 491 | 3 | 504 | 6
C1=C(c2ccc(-c3ccccc3)nn2)C2CCN(C1)CC2 [4-(6-Phenylpyridazin-3-yl)-1-azabicyclo[3.2.2]non-3-ene] | 6.49 | – | – | – | – | –
